# Experimental data taken from US20110165649A1, “METHODS AND COMPOSITIONS TO IMPROVE THE HEALTH OF PLANTS, ANIMALS AND MICROBES BY MANIPULATING PROTEIN ENTRY INTO SYMBIONTS AND THEIR HOSTS” (priority 2010, published 2011).
# “Also recorded” adds a separate entry of the source.
# Columns and labels:
# P. sojae hyphae = assay: Binding and entry of fluorescent lipid-binding fusion proteins, P. sojae hyphae, confocal microscopy; format: cell-based, Phytophthora sojae
# Procedure: A, Phosphatidylinositol-4-phosphate (PI-4-P) on the surface of P. sojae membranes mediates selective protein entry. Phosphatidylinositol-4-phosphate adaptor protein-1 (FAPP1)-mCherry, FAPP1-GFP, mCHerry alone or phosphatidylinositol-3-phosphate-binding PH-domain protein-1 (PEPP1)-GFP proteins (1 mg/ml) were incubated together with P. sojae hyphae for 12 hr, then washed extensively. Left panels show fluorescence image; right panels show the matching light micrograph.
# To test for the presence of PI-3-P and PI-4-P on P. sojae hyphae, and the ability of those phosphoinositides to carry binding proteins into the hyphae, the pleckstrin-homology (PH) domains of the human proteins phosphatidylinositol-3-phosphate-binding PH-domain protein-1 (PEPP1) and phosphatidylinositol-4-phosphate adaptor protein-1 (FAPP1), respectively, were utilized (Dowler et al., 2000). […] To create biosensors capable of detecting PI-3P and PI-4-P in vivo, the PH domain of PEPP1 was fused to green fluorescent protein (GFP) and the PH domain of FAPP1 was fused to the modified red fluorescent protein, mCherry. (Sequences of the nucleic acids used for the production of these proteins, and the amino acid sequences corresponding to the same, are presented in FIGS. 6 A and B ([…]) and FIGS. 7 A and B (GST-FAPP1-mCherry. PEPP1-GFP and FAPP1-mCherry proteins (1 mg/ml in 25 mM 2-(N-morpholino)ethanesulfonic acid (MES) pH 5.8) were incubated with P. sojae hyphae for 6 hr at 25° C. then washed for 30 min with 25 mM MES pH 5.8, before being photographed using a Zeiss LSM510 laser scanning confocal microscope with an argon laser excitation wavelength of 488 nm for GFP or with a HeNe laser at a wavelength of 543 nm for mCherry.
# [1] = tested on: soybean root suspension culture cells / soybean root tips; assay: Binding and entry of fluorescent lipid-binding fusion proteins, soybean root cells; format: cell-based; conditions: 1 mg/ml in 25 mM MES pH 5.8, 4° C., suspension culture cells 6 hr or root tips 12 hr
# Procedure: B, Detection of PI-3-P but not PI-4-P on the surface of soybean cells. PEPP1-GFP or FAPP1-GFP proteins (1 mg/ml in 25 mM MES pH 5.8) were incubated with soybean root suspension culture cells for 6 hr or with soybean root tips for 12 hr at 4° C. then washed for 2 hr with 25 mM MES pH 5.8, then plasmolyzed with 0.8M Mannitol (suspension culture cells) or 4M NaCl (roots) for 30 minutes, before being photographed. Left panels show fluorescence image; right panels show the matching light micrograph. Plasma membranes are indicated by the white arrow heads.
# [2] = tested on: Human lung adenocarcinoma cells A549; assay: Binding and entry of fluorescent lipid-binding fusion proteins, human lung cells; format: cell-based; conditions: 1 mg/ml in DPBS
# Procedure: C, Detection of PI-3-P but not PI-4-P on the surface of human lung cells PEPP1-mCherry or FAPP1-mCherry proteins [1 mg/ml in Dulbecco's Phosphate Buffer Saline (Ca^+2/Mg^+2 free) (DPBS; Gibco)] were incubated with Human lung adenocarcinoma cells A549 (ATCC CCL-185) for 8 hr at 4° C. or 37° C. then washed twice briefly with DPBS, before being photographed. Left panels show fluorescence image; right panels show the matching light micrograph. […] FIGS. 1B and C were adapted from FIGS. 3 and 5 respectively from Kale et al 2010. External lipid PI-3-P mediates entry of eukaryotic pathogen effectors into plant and animal host cells. Cell 142:284-295.
# [3] = 1 mg/ml in 25 mM MES pH 5.8, 6 hr at 25° C., confocal microscopy
# [4] = hyphae stained simultaneously with PEPP1-GFP and FAPP1-mCherry
substance,measurement,setting,value
FAPP1-mCherry: PH domain of human FAPP1 (PI-4-P-binding) fused to the modified red fluorescent protein mCherry; SEQ ID NO: 8,binding to the membrane of P. sojae hyphae,P. sojae hyphae; [3],bound to the membrane of P. sojae hyphae
same,entry into P. sojae hyphae,P. sojae hyphae; [3],entered into the cells in abundance; also recorded: entered P. sojae hyphae
same,"cellular entry, P. sojae hyphae",P. sojae hyphae; [4],cellular entry
same,"membrane binding, P. sojae hyphae",P. sojae hyphae; [4],strong membrane binding
same,entry into soybean cells,[1],not
same,binding to the surface of soybean cells,[1]; plasmolyzed,not
same,binding to the surface of human A549 cells,[2]; 8 hr at 4° C. (endocytosis inhibited),not and neither binds to the surface of the cells and does neither
same,entry into human A549 cells,[2]; 8 hr at 37° C. (endocytosis active),not and nor enters the cells and does neither
